One may read the IC50 as the concentration needed to halve the response being measured. A word on the Km: it is the concentration of substrate that gives half-maximal velocity.

Experimental findings from patent publication US7671181B2, “Polynucleotides encoding coccidian parasite casein kinase I, a chemotherapeutic target for antiprotozoal agents” (Merck Sharp & Dohme Corp., priority 2004, dated 2010) are described below.

Like-named read-outs stand apart in the source and are kept apart here.

One series deals with T. gondii tachyzoites. Put plainly: [3H]-uracil uptake assay of parasite growth inhibition in infected HFF cell monolayers. In kind it is cell-based, Toxoplasma gondii. The following applies: for IC50: read-out: IC50 against T. gondii in the uracil uptake assay; for activity against cultured T. gondii parasites: uracil uptake / whole cell assay. The source says:
(§1) Host cells and parasite cultures—RH strain or RH ΔHXGPRT strain tachyzoites of T. gondii were maintained by serial passage in confluent monolayers of human foreskin fibroblasts (“HFF”) as described (Roos, D. S. et al., 1994, Methods Cell Biol. 45:27-63). A modified [^3H]-uracil uptake assay (Pfefferkorn, E. R. and Pfefferkorn, L. C., 1977, J. Protozool. 24:449-453) adapted for use in 96-well scintillation plates (Cytostar-T, Amersham; Piscataway, N.J.) was used to measure parasite growth inhibition. Each well, previously seeded with HFF cells, was inoculated with T. gondii tachyzoites (2×10^4) in 200 μl of growth media containing 2 μCi [5,6]-^3H-uracil (Perkin-Elmer NEN; Boston, Mass.) and serially diluted compound. Following incubation at 37° C. for 36-48 hours, tritium-incorporation into host cell monolayers was directly counted in a microplate scintillation counter (MicroBeta, PerkinElmer-Wallac).

Another series deals with T. gondii. Put plainly: Parasite growth inhibition, modified [3H]-uracil uptake assay in infected HFF cell monolayers. The following applies: for activity against T. gondii in the uracil uptake (whole cell) assay: cultured parasites, in words. It counts as cell-based, Toxoplasma gondii.
Excerpt: as §1
The only other CDK inhibitor with sub-μM activity against T. gondii was indirubin-3′-monoxime, which gave an IC50 value of 500 nM.

Series [1] has as its target T1, TgCKIα (Toxoplasma gondii, UniProt Q6QNM1). In words: Casein kinase assay, TgCKIα (recombinant FLAGTgCKIα or partially purified native). It counts as biochemical. Details: other: recombinant or native forms of TgCKIα. As to the method: (§2) Protein kinase assays—Casein kinase activity was assayed essentially as described (Donald, R. G. K. et al., 2002, supra) using 96-well phosphocellulose plates (MAPH-NOB, Millipore; Billerica, Mass.) to capture ^33P-phosphorylated peptide or casein substrates. Kinase reactions were carried out in 40 μl volumes containing 25 mM Hepes, pH 7.4, 10 mM MgCl2, 20 mM β-glycerophosphate, 1 mM DTT, 250 μM substrate, 1 mg/mL BSA, 2 μM ATP, and 0.01 μM [γ-^33P]ATP (Perkin-Elmer, 3000 Ci/mmol). […] Casein (5% solution), partially dephosphorylated α-casein and β-casein were obtained from Sigma.
(§3) A variety of commercially available peptide substrates were evaluated. From Calbiochem (San Diego, Calif.): CKI substrate (RRKDLHDDEEDEAMSITA; SEQ ID NO:13); CKII substrate (RRADDSDDDDD; SEQ ID NO:14); Syntide-2 substrate (PLARTLSVAGLPGKK; SEQ ID NO:15); CaM kinase II substrate (281-291) (MHKNETVECLK; SEQ ID NO:16). From Promega: CKI substrate (DDDEESITRR; SEQ ID NO:17) and kemptide (LRRASLG; SEQ ID NO:18). From New England Biolabs (Beverly, Mass.): CKI phosphopeptide substrate (KRRRALS(p)VASLPGL; SEQ ID NO:19), and CKII substrate (RRREEETEEE; SEQ ID NO:20). PKG assays were performed with kemptide as substrate and 10 μM cGMP. CDPK was assayed with Syntide-2 substrate and in the presence of 100 μM CaCl2.
Purification of recombinant CKI enzymes—E. coli strain BL21 Origami™ (Novagen) was transformed with FLAGTgCKIα and FLAGTgCKIβ expression vectors, and colonies were expanded into 250 mL LB cultures grown at 37° C. […] Protein was measured with a micro-BCA reagent (Pierce) following a TCA-sodium deoxycholate step to remove residual FLAG peptide (Brown et al., 1989, Anal. Biochem. 180:136-139). […]
(§4) Preparations of FLAGTgCKIα and FLAGTgCKIβ were purified further on a SMART system FPLC 0.1 mL MonoQ anion exchange column (Pharmacia; New York, N.Y.) equilibrated in buffer A (50 mM Hepes, pH 7.4, 10% glycerol, 1 mM DTT) at room temperature. […] A linear salt gradient was applied (0-500 mM in 3 mL at 100 μl/min) and 100 μl fractions were collected and analyzed by SDS-PAGE and for CKI activity. […]

In a further series the target is EtCKIα (Eimeria tenella, UniProt Q6QNL9). Put plainly: Casein kinase assay, partially purified native EtCKIα. In kind it is biochemical. The following applies: native enzyme. As to the method:
(§5) Protein kinase assays—Casein kinase activity was assayed essentially as described (Donald, R. G. K. et al., 2002, supra) using 96-well phosphocellulose plates (MAPH-NOB, Millipore; Billerica, Mass.) to capture ^33P-phosphorylated peptide or casein substrates. Kinase reactions were carried out in 40 μl volumes containing 25 mM Hepes, pH 7.4, 10 mM MgCl2, 20 mM β-glycerophosphate, 1 mM DTT, 250 μM substrate, 1 mg/mL BSA, 2 μM ATP, and 0.01 μM [γ-^33P]ATP (Perkin-Elmer, 3000 Ci/mmol). The reactions were initiated by the addition of enzyme and incubated at room temperature for 60 min. Casein (5% solution), partially dephosphorylated α-casein and β-casein were obtained from Sigma.
as §3
Partial purification of native EtCKIα—The inability to stably express recombinant EtCKIα in T. gondii provided impetus to purify native enzyme from E. tenella parasites (slide 5). A lysate was prepared from 2×10^10 unsporulated oocysts using previously published procedures (Gurnett, A. M. et al., 2002, supra). The first two steps of the purification scheme used were essentially scaled-up from the method described for the purification of native TgCKIα. The lysate was subjected to preparative HiLoad Q anion-exchange chromatography and fractions eluted with a NaCl gradient (0-1 M NaCl). […]

The target in a further series is TgCKIβ (Toxoplasma gondii, UniProt Q6QNM0). In words: Casein kinase assay, recombinant FLAGTgCKIβ. In kind it is biochemical. The following applies: substrate titration, 2 μM ATP; for Km: read-out: Km(app), FLAGTgCKIβ. Here is the method:
as §2, §3
(§6) Purification of recombinant CKI enzymes—E. coli strain BL21 Origami™ (Novagen) was transformed with FLAGTgCKIα and FLAGTgCKIβ expression vectors, and colonies were expanded into 250 mL LB cultures grown at 37° C. Expression was induced with 1 mM IPTG once cultures had reached an OD600nm of 0.3-0.5, and the transformed bacteria were harvested 4-6 hours later. Cell pellets were resuspended in 15 mL of lysis buffer containing protease inhibitors and lysates prepared as described by the supplier (Bugbuster™ reagents, Novagen). The concentration of NaCl in the lysate was adjusted to 0.5 M, and 0.5 mL of FLAG-agarose beads were added (Sigma). The mixture was allowed to rock in a Nutator mixer (Becton-Dickinson; San Jose, Calif.) for 2 hours at 4° C. The slurry was then poured into an empty column and the matrix washed with 50 mL of wash buffer (50 mM Tris-HCl, pH 7.4, 0.5M NaCl, 10% glycerol, 1 mM DTT, 1 mM EDTA). Enzyme was eluted with 5 mL of 0.4 mg/mL FLAG peptide (Sigma) in NaCl-free wash buffer and concentrated with a centrifuge filtration unit (Amicon Ultra®, 10 kDa cut-off, Millipore). Protein was measured with a micro-BCA reagent (Pierce) following a TCA-sodium deoxycholate step to remove residual FLAG peptide (Brown et al., 1989, Anal. Biochem. 180:136-139). Using this procedure, and SDS-PAGE analysis, the yield of FLAGTgCKIβ was estimated as ˜200 μg of enzyme with >90% purity. Purification of FLAGTgCKIα was much less efficient with only about 1 μg of ˜10% pure enzyme obtained per 250 mL bacterial culture.
Preparations of FLAGTgCKIα and FLAGTgCKIβ were purified further on a SMART system FPLC 0.1 mL MonoQ anion exchange column (Pharmacia; New York, N.Y.) equilibrated in buffer A (50 mM Hepes, pH 7.4, 10% glycerol, 1 mM DTT) at room temperature. Samples of FLAG-affinity purified enzyme (10-100 μg) were syringe-passed through a 0.22 μm (pore-size) filter before loading on the column. A linear salt gradient was applied (0-500 mM in 3 mL at 100 μl/min) and 100 μl fractions were collected and analyzed by SDS-PAGE and for CKI activity. Fractions with peak activity were retained for further analysis. The degree of purity of the partially purified FLAGTgCKIα was estimated by densitometry of silver stained SDS-PAGE gels. A recombinant rat CKIδ enzyme used for control purposes was obtained from New England Biolabs.

The target in the next series is T2, TgCDPK1 (Toxoplasma gondii, UniProt Q9BJF5).
T2 construct: The TgCDPK1 open reading frame was amplified by PCR from a Toxoplasma cDNA library; made in house
In words: CDPK assay with Syntide-2, T. gondii CDPK1. The following applies: read-out: IC50 against the CDPK1 enzyme. It counts as biochemical. Here is the method: as §5, §3
Purification of recombinant TgCDPK1 and TgPKG—The TgCDPK1 open reading frame was amplified by PCR from a Toxoplasma cDNA library, using primers based on the published sequence (Kieschnick et al., 2001, supra): sense primer, […] (SEQ ID NO:44); and, antisense primer, […] (SEQ ID NO:45). A C-terminal FLAG epitope tag was appended to the TgCDPK1 open reading frame by an additional round of PCR amplification (KOD polymerase) and the resulting DNA fragment was sub-cloned into a tubulin promoter expression vector (Donald and Liberator, 2002, supra). […]

For series [2], the target named is T1, TgCKIα. Put plainly: Casein kinase assay, TgCKIα (recombinant FLAGTgCKIα or partially purified native). In kind it is biochemical. Details: Km(app), native TgCKIα; other: substrate titration, 2 μM ATP; IC50, nativeTgCKIα; other: partially purified native enzyme from Toxoplasma tachyzoites; sensitivity of native TgCKIα phosphopeptide kinase activity (HiTrapQ fractions 5-9); other: 0.2 μM hymenialdisine or 1. The following applies: substrate titration, 2 μM ATP; read-out: Km(app), native TgCKIα. As to the method:
as §2, §3
as §6, with “Enzyme was eluted with 5 mL of 0.4 mg/mL FLAG peptide (Sigma) in NaCl-free wash buffer and concentrated with a centrifuge filtration unit (Amicon Ultra®, 10 kDa cut-off, Millipore).” left out, “Using this procedure, and SDS-PAGE analysis, the yield of FLAGTgCKIβ was estimated as ˜200 μg of enzyme with >90% purity. Purification of FLAGTgCKIα was much less efficient with only about 1 μg of ˜10% pure enzyme obtained per 250 mL bacterial culture.” left out
as §4

Series [3] addresses T1, TgCKIα. The series is described as above. The following applies: substrate titration, 2 μM ATP; for Km: read-out: Km(app), FLAGTgCKIα. It counts as biochemical. The arrangement: Vmax(app), FLAGTgCKIα; other: substrate titration, 2 μM ATP; Km(app), FLAGTgCKIα. As to the method:
as §2, §3
as §6, with “Enzyme was eluted with 5 mL of 0.4 mg/mL FLAG peptide (Sigma) in NaCl-free wash buffer and concentrated with a centrifuge filtration unit (Amicon Ultra®, 10 kDa cut-off, Millipore).” left out, “Using this procedure, and SDS-PAGE analysis, the yield of FLAGTgCKIβ was estimated as ˜200 μg of enzyme with >90% purity. Purification of FLAGTgCKIα was much less efficient with only about 1 μg of ˜10% pure enzyme obtained per 250 mL bacterial culture.” left out
as §4

T1 sequence (Q6QNM1 whole entry, looked up): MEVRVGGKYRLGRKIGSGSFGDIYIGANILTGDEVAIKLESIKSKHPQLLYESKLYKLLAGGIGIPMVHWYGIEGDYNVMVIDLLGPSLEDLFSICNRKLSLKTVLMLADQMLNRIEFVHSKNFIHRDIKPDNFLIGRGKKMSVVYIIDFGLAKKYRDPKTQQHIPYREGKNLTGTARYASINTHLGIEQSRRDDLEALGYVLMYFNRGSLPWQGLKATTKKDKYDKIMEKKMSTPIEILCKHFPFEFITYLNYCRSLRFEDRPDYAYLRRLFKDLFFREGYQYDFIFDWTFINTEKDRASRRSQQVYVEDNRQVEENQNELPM
TgCKIβ, sequence (Q6QNM0 entry or part of it): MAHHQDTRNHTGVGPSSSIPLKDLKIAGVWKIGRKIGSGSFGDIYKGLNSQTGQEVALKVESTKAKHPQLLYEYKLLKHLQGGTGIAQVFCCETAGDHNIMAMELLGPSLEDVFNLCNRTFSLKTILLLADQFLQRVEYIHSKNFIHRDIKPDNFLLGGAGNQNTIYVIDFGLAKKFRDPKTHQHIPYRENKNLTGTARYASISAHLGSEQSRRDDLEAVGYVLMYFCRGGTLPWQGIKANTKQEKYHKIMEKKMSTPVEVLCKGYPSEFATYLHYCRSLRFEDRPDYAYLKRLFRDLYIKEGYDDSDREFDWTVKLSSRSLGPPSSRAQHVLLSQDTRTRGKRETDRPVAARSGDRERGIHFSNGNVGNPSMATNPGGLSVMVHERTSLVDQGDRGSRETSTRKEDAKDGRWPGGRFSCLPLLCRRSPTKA
EtCKIα, sequence (Q6QNL9 whole entry): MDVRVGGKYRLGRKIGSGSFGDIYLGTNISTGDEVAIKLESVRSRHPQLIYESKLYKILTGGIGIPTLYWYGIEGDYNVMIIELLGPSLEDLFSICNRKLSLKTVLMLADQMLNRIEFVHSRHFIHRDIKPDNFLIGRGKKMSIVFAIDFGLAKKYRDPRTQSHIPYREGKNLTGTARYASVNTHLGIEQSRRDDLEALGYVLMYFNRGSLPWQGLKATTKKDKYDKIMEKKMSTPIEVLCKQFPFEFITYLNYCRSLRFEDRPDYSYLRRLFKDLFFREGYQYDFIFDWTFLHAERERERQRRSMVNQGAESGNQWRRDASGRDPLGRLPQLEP
T2 sequence (Q9BJF5 entry or part of it): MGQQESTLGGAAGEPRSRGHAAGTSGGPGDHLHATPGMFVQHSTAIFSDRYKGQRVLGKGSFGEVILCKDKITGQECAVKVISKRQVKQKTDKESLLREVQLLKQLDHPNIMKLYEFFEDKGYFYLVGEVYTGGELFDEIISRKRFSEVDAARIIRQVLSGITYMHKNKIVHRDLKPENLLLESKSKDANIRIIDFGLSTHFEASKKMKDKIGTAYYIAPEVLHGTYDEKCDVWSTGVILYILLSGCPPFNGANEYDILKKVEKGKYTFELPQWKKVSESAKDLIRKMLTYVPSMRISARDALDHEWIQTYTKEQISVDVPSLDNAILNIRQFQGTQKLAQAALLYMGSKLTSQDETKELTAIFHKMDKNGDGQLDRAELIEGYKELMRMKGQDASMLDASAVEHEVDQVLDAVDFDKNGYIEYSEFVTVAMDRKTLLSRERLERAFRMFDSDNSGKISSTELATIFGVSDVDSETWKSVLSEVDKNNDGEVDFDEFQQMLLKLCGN

As to `CN1CCC(c2cc(-c3ccncc3)c(-c3ccc(F)cc3)[nH]2)CC1` [Compound 1], the IC50 in the series with T. gondii tachyzoites (infected HFF cell monolayers, 36-48 hours) is 200 nM; in the series with T. gondii (Toxoplasma gondii, HFF) it was 200 nM.
On to `CC(C)[C@H](CO)Nc1nc(Nc2cc(N)cc(Cl)c2)c2ncn(C(C)C)c2n1` [aminopurvalanol], for which the IC50 was 375 nM in the series on T. gondii tachyzoites (Toxoplasma gondii, HFF) and 40 to 60 nM on TgCKIα [1]. For the same molecule, the “activity against / sensitivity of EtCKIα” value on EtCKIα is reported as “good activity”.
For `Cn1cnc2c(NCc3ccccc3)nc(NCCO)nc21` [olomoucine], the “activity against cultured T. gondii parasites” value with T. gondii tachyzoites is given as “no activity”.
`CC(C)[C@H](CO)Nc1nc(Nc2cccc(Cl)c2)c2ncn(C(C)C)c2n1` [purvalanol A]: the “activity against cultured T. gondii parasites” value in the series on T. gondii tachyzoites was “mediocre activity”. The “activity against T. gondii in the uracil uptake (whole cell) assay” value in the series on T. gondii was “only mediocre activity”.
For the molecule `CC[C@H](CO)Nc1nc(NCc2ccccc2)c2ncn(C(C)C)c2n1` [roscovitine], the “activity against cultured T. gondii parasites” value in the series with T. gondii tachyzoites is reported as “mediocre activity”. Also, the “activity against T. gondii in the uracil uptake (whole cell) assay” value with T. gondii is reported as “only mediocre activity”.
Take RRKDLHDDEEDEAMSITA [CKI peptide]: in the series with TgCKIβ, the “Vmax(app), FLAGTgCKIβ” value came to 8 nmol/min/mg and the Km was 15 µM.
Consider indirubin-3′-monoxime, for which the IC50 on TgCKIα [1] (recombinant or native forms of TgCKIα, read-out: IC50 against TgCKIα) stood at 172 nM; on TgCDPK1 it was 175 nM.

B1: α-casein: partially dephosphorylated α-casein from Sigma, kinase substrate (protein)
chain: RPKHPIKHQGLPQEVLNENLLRFFVAPFPEVFGKEKVNELSKDIGSESTEDQAMEDIKQMEAESISSSEEIVPNSVEQKHIQKEDVPSERYLGYLEQLLRLKKYKVPQLEIVPNSAEERLHSMKEGIHAQQKEPMIGVNQELAYFYPELFRQFYQLDAYPSGAWYYVPLGTQYTDAPSFSDIPNPIGSENSEKTTMPLW
Consider B1, for which the Km in the series with TgCKIα [2] was 3 µM. For the same molecule, in the series with TgCKIα [3], the “Vmax(app), FLAGTgCKIα” value was found to be 8 nmol/min/mg and the Km was 4 µM. Moreover, in the series with TgCKIβ, the “Vmax(app), FLAGTgCKIβ” value is 12 nmol/min/mg and the Km came out at 5 µM.

B2: β-casein: β-casein from Sigma, kinase substrate (protein)
chain: RELEELNVPGEIVESLSSSEESITRINKKIEKFQSEEQQQTEDELQDKIHPFAQTQSLVYPFPGPIPNSLPQNIPPLTQTPVVVPPFLQPEVMGVSKVKEAMAPKHKEMPFPKYPVEPFTESQSLTLTDVENLHLPLPLLQSWMHQPHQPLPPTVMFPPQSVLSLSQSKVLPVPQKAVPYPQRDMPIQAFLLYQEPVLGPVRGPFPIIV
As to B2, the Km with TgCKIα [2] was 13 µM; in the series with TgCKIα [3], 30 µM; with TgCKIβ, 12 µM. The “Vmax(app), FLAGTgCKIα” value in the series with TgCKIα [3] turned out to be 8 nmol/min/mg. The “Vmax(app), FLAGTgCKIβ” value with TgCKIβ amounted to 16 nmol/min/mg.
